Laboratory results as given in US12077503B2, “Substituted cyclic amides and their use as herbicides” (FMC CORPORATION, priority 2015, dated 2024).

What was measured:
Assay in all cases: Test C preemergence
Assay type in all cases: in vivo
[1] = tested on: lambsquarters (Chenopodium album); settings: for Plant response rating, Lambsquarters: scale 0 to 100, 0 no effect, 100 complete control
Method in brief: (§1)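 Herbicidal effect, applied preemergence to sown seeds or postemergence to 1- to 4-leaf plants, was scored visually 13 to 15 d after application, 0 to 100 versus controls.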

[2] = tested on: oilseed rape (Brassica napus); settings: for Plant response rating, Oilseed Rape: scale 0 to 100, 0 no effect, 100 complete control
Method in brief: as §1

[3] = tested on: waterhemp (common waterhemp, Amaranthus rudis); settings: for Plant response rating, Waterhemp: scale 0 to 100, 0 no effect, 100 complete control
Method in brief: as §1

[4] = tested on: nutsedge, yellow (yellow nutsedge, Cyperus esculentus); settings: for Plant response rating, Nutsedge, Yellow: scale 0 to 100, 0 no effect, 100 complete control
Method in brief: as §1

[5] = tested on: foxtail, giant (giant foxtail, Setaria faberii); settings: for Plant response rating, Foxtail, Giant: scale 0 to 100, 0 no effect, 100 complete control
Method in brief: as §1

[6] = tested on: Galium (catchweed bedstraw, Galium aparine); settings: for Plant response rating, Galium: scale 0 to 100, 0 no effect, 100 complete control
Method in brief: as §1

[7] = tested on: corn (Zea mays); settings: for Plant response rating, Corn: scale 0 to 100, 0 no effect, 100 complete control
Method in brief: as §1

[8] = tested on: soybean (Glycine max); settings: for Plant response rating, Soybean: scale 0 to 100, 0 no effect, 100 complete control
Method in brief: as §1

[9] = tested on: crabgrass, large (large crabgrass, Digitaria sanguinalis); settings: for Plant response rating, Crabgrass, Large: scale 0 to 100, 0 no effect, 100 complete control
Method in brief: as §1

[10] = tested on: velvetleaf (Abutilon theophrasti); settings: for Plant response rating, Velvetleaf: scale 0 to 100, 0 no effect, 100 complete control
Method in brief: as §1

[11] = tested on: ragweed (common ragweed, Ambrosia elatior); settings: for Plant response rating, Ragweed: scale 0 to 100, 0 no effect, 100 complete control
Method in brief: as §1

[12] = tested on: wheat (winter wheat, Triticum aestivum); settings: for Plant response rating, Wheat: scale 0 to 100, 0 no effect, 100 complete control
Method in brief: as §1

[13] = tested on: pigweed (Amaranthus retroflexus); settings: for Plant response rating, Pigweed: scale 0 to 100, 0 no effect, 100 complete control
Method in brief: as §1

[14] = tested on: morningglory (Ipomoea coccinea); settings: for Plant response rating, Morningglory: scale 0 to 100, 0 no effect, 100 complete control
Method in brief: as §1

[15] = tested on: blackgrass (Alopecurus myosuroides); settings: for Plant response rating, Blackgrass: scale 0 to 100, 0 no effect, 100 complete control
Method in brief: as §1

[16] = tested on: barnyardgrass (Echinochloa crus-galli); settings: for Plant response rating, Barnyardgrass: scale 0 to 100, 0 no effect, 100 complete control
Method in brief: as §1

[17] = tested on: ryegrass, Italian (Italian ryegrass, Lolium multiflorum); settings: for Plant response rating, Ryegrass, Italian: scale 0 to 100, 0 no effect, 100 complete control
Method in brief: as §1

[18] = 31 g ai/ha, 0 is no effect, 100 is complete control

With Cc1ccc(C2CN(C)C(=O)C2C(=O)Nc2cccc(F)c2F)cc1 (centres unmarked) [Compound 662] the “Plant response rating (scale of 0 to 100), Lambsquarters” value [1, 18] was 100, the “Plant response rating, Lambsquarters” value ([1]; 62 g ai/ha) was 85 and the “Plant response rating, Lambsquarters” value ([1]; 125 g ai/ha) was 100. For the same compound, the “Plant response rating, Lambsquarters” value ([1]; 250 g ai/ha) was 100, the “Plant response rating (scale of 0 to 100), Oilseed Rape” value [2, 18] was 70 and the “Plant response rating, Oilseed Rape” value ([2]; 62 g ai/ha) was 85. For the same compound, the “Plant response rating, Oilseed Rape” value ([2]; 125 g ai/ha) was 90, the “Plant response rating, Oilseed Rape” value ([2]; 250 g ai/ha) was 90 and the “Plant response rating (scale of 0 to 100), Waterhemp” value [3, 18] was 60. The “Plant response rating, Waterhemp” value ([3]; 62 g ai/ha) was 80, the “Plant response rating, Waterhemp” value ([3]; 125 g ai/ha) was 85 and the “Plant response rating, Waterhemp” value ([3]; 250 g ai/ha) was 90. The “Plant response rating (scale of 0 to 100), Nutsedge, Yellow” value [4, 18] was 0, the “Plant response rating, Nutsedge, Yellow” value ([4]; 62 g ai/ha) was 0 and the “Plant response rating, Nutsedge, Yellow” value ([4]; 125 g ai/ha) was 0. The “Plant response rating, Nutsedge, Yellow” value ([4]; 250 g ai/ha) was 0, the “Plant response rating (scale of 0 to 100), Foxtail, Giant” value [5, 18] was 95 and the “Plant response rating, Foxtail, Giant” value ([5]; 62 g ai/ha) was 95. The “Plant response rating, Foxtail, Giant” value ([5]; 125 g ai/ha) was 95, the “Plant response rating, Foxtail, Giant” value ([5]; 250 g ai/ha) was 98 and the “Plant response rating (scale of 0 to 100), Galium” value [6, 18] was 90. The “Plant response rating, Galium” value ([6]; 62 g ai/ha) was 100, the “Plant response rating, Galium” value ([6]; 125 g ai/ha) was 100 and the “Plant response rating, Galium” value ([6]; 250 g ai/ha) was 90. The “Plant response rating (scale of 0 to 100), Corn” value [7, 18] was 55, the “Plant response rating, Corn” value ([7]; 62 g ai/ha) was 70 and the “Plant response rating, Corn” value ([7]; 125 g ai/ha) was 80. The “Plant response rating, Corn” value ([7]; 250 g ai/ha) was 85, the “Plant response rating (scale of 0 to 100), Soybean” value [8, 18] was 0 and the “Plant response rating, Soybean” value ([8]; 62 g ai/ha) was 0. The “Plant response rating, Soybean” value ([8]; 125 g ai/ha) was 0, the “Plant response rating, Soybean” value ([8]; 250 g ai/ha) was 0 and the “Plant response rating (scale of 0 to 100), Crabgrass, Large” value [9, 18] was 98. The “Plant response rating, Crabgrass, Large” value ([9]; 62 g ai/ha) was 98, the “Plant response rating, Crabgrass, Large” value ([9]; 125 g ai/ha) was 100 and the “Plant response rating, Crabgrass, Large” value ([9]; 250 g ai/ha) was 100. The “Plant response rating (scale of 0 to 100), Velvetleaf” value [10, 18] was 35, the “Plant response rating, Velvetleaf” value ([10]; 62 g ai/ha) was 50 and the “Plant response rating, Velvetleaf” value ([10]; 125 g ai/ha) was 70. The “Plant response rating, Velvetleaf” value ([10]; 250 g ai/ha) was 75, the “Plant response rating (scale of 0 to 100), Ragweed” value [11, 18] was 70 and the “Plant response rating, Ragweed” value ([11]; 62 g ai/ha) was 75. For the same compound, the “Plant response rating, Ragweed” value ([11]; 125 g ai/ha) was 80, the “Plant response rating, Ragweed” value ([11]; 250 g ai/ha) was 85 and the “Plant response rating (scale of 0 to 100), Wheat” value [12, 18] was 35. The “Plant response rating, Wheat” value ([12]; 62 g ai/ha) was 70, the “Plant response rating, Wheat” value ([12]; 125 g ai/ha) was 90 and the “Plant response rating, Wheat” value ([12]; 250 g ai/ha) was 90. For the same compound, the “Plant response rating (scale of 0 to 100), Pigweed” value [13, 18] was 70, the “Plant response rating, Pigweed” value ([13]; 62 g ai/ha) was 60 and the “Plant response rating, Pigweed” value ([13]; 125 g ai/ha) was 75. For the same compound, the “Plant response rating, Pigweed” value ([13]; 250 g ai/ha) was 80, the “Plant response rating (scale of 0 to 100), Morningglory” value [14, 18] was 0 and the “Plant response rating, Morningglory” value ([14]; 62 g ai/ha) was 0. The “Plant response rating, Morningglory” value ([14]; 125 g ai/ha) was 30, the “Plant response rating, Morningglory” value ([14]; 250 g ai/ha) was 25 and the “Plant response rating (scale of 0 to 100), Blackgrass” value [15, 18] was 70. The “Plant response rating, Blackgrass” value ([15]; 62 g ai/ha) was 75, the “Plant response rating, Blackgrass” value ([15]; 125 g ai/ha) was 95 and the “Plant response rating, Blackgrass” value ([15]; 250 g ai/ha) was 98. For the same compound, the “Plant response rating (scale of 0 to 100), Barnyardgrass” value [16, 18] was 95, the “Plant response rating, Barnyardgrass” value ([16]; 62 g ai/ha) was 98 and the “Plant response rating, Barnyardgrass” value ([16]; 125 g ai/ha) was 98. For the same compound, the “Plant response rating, Barnyardgrass” value ([16]; 250 g ai/ha) was 100, the “Plant response rating (scale of 0 to 100), Ryegrass, Italian” value [17, 18] was 50 and the “Plant response rating, Ryegrass, Italian” value ([17]; 62 g ai/ha) was 70. For the same compound, the “Plant response rating, Ryegrass, Italian” value ([17]; 125 g ai/ha) was 80 and the “Plant response rating, Ryegrass, Italian” value ([17]; 250 g ai/ha) was 95.
